#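 Test compounds were applied to cells in 96-well plates for 48 hours at 5 doses. At the TGI there is no net growth.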
# Key:
# Experiment in all cases: growth of human tumour cells (NCI), 48 h
# SNB-75 CNS = test system: SNB-75 CNS
# HL-60(TB) leukemia = test system: HL-60(TB) leukemia
# HCT-15 colon = test system: HCT-15 colon
# UACC-62 melanoma = test system: UACC-62 melanoma
# RPMI-8226 leukemia = test system: RPMI-8226 leukemia
# NCI-H226 lung = test system: NCI-H226 lung
# SF-268 CNS = test system: SF-268 CNS
# 786-0 renal = test system: 786-0 renal
# NCI-H23 lung = test system: NCI-H23 lung
# K-562 leukemia = test system: K-562 leukemia
# MOLT-4 leukemia = test system: MOLT-4 leukemia
# SK-MEL-2 melanoma = test system: SK-MEL-2 melanoma
# IGROV1 ovarian = test system: IGROV1 ovarian
Structure (SMILES),TGI (SNB-75 CNS),TGI (HL-60(TB) leukemia),TGI (HCT-15 colon),TGI (UACC-62 melanoma),TGI (RPMI-8226 leukemia),TGI (NCI-H226 lung),TGI (SF-268 CNS),TGI (786-0 renal),TGI (NCI-H23 lung),TGI (K-562 leukemia),TGI (MOLT-4 leukemia),TGI (SK-MEL-2 melanoma),TGI (IGROV1 ovarian)
COc1ccc(/C(CC2OC(=O)c3ccccc32)=N\NC(N)=O)cc1 (centres undefined),> 100 µM,> 100 µM,> 100 µM,> 100 µM,> 100 µM,> 100 µM,> 100 µM,> 100 µM,> 100 µM,> 100 µM,> 100 µM,> 100 µM,> 100 µM
O=c1[nH]c2ccc([N+](=O)[O-])cc2nc1/C(=N/Nc1ccccc1)C(O)c1ccco1 (centres undefined),> 100 µM,> 100 µM,63.5 µM,> 100 µM,> 100 µM,> 100 µM,> 100 µM,> 100 µM,> 100 µM,> 100 µM,> 100 µM,> 100 µM,> 100 µM
COc1ccc(CC[N+]2(C)COc3cc4oc(=O)cc(C)c4cc3C2)cc1OC (centres undefined),> 100 µM,> 100 µM,> 100 µM,> 100 µM,> 100 µM,> 100 µM,> 100 µM,> 100 µM,> 100 µM,> 100 µM,18 µM,> 100 µM,> 100 µM
COC(=O)C(=O)C(C(=O)C(=O)Nc1ccc(C)c(C)c1)c1nc2ccc([N+](=O)[O-])cc2[nH]c1=O (centres undefined),> 100 µM,> 100 µM,> 100 µM,> 100 µM,> 100 µM,> 100 µM,> 100 µM,> 100 µM,> 100 µM,> 100 µM,> 100 µM,> 100 µM,> 100 µM
CC1=CCN(c2ccccn2)OC1c1ccccc1 (centres undefined),> 100 µM,> 100 µM,> 100 µM,> 100 µM,> 100 µM,> 100 µM,> 100 µM,> 100 µM,> 100 µM,> 100 µM,> 100 µM,> 100 µM,> 100 µM
Oc1ccc(SCc2cc(O)ccc2O)cc1,> 65.9 µM,> 100 µM,30.8 µM,53.2 µM,> 100 µM,35.5 µM,> 62.7 µM,36.4 µM,> 100 µM,> 100 µM,> 52.9 µM,39.2 µM,25.6 µM
C(=C\c1c2oc(-c3ccccc3)cc(-c3ccccc3)c-2c2ccccc12)/C=C1\c2ccccc2-c2c(-c3ccccc3)cc(-c3ccccc3)[o+]c21,> 100 µM,> 100 µM,> 100 µM,> 100 µM,> 100 µM,> 100 µM,> 100 µM,> 100 µM,> 100 µM,> 100 µM,> 100 µM,> 100 µM,> 100 µM
O=C(/C(=C/c1ccc(O)cc1)c1ccccc1)c1ccccc1,42.5 µM,31.6 µM,31.9 µM,27.1 µM,42.3 µM,30.8 µM,34.6 µM,34.5 µM,30.7 µM,44.4 µM,37.3 µM,24.1 µM,38.3 µM

# — PubChem BioAssay (NCI)
